Experimental data from PMC6694155, “PTPσ inhibitors promote hematopoietic stem cell regeneration” (Nature Communications, 2019).
Several values for one entry are separate records, joined by “and”; a condition that tells them apart may be missing. Equal entries are not always repeated.

Tests used:
[1] = tested on: BM KSL cells; test: Annexin V/7AAD apoptosis assay of BM KSL cells from mice 24 h post 500 cGy TBI; assay type: in vivo, mouse
Procedure: (§1) Eight- to ten-week-old female C57BL/6 mice were irradiated with 500 cGy TBI followed by subcutaneous injections of 5 mg/kg DJ001 or vehicle, or 5 mg/kg DJ001 plus 40 mg/kg EHT1864. Twenty four hours after irradiation, mice were killed to collect BM cells for Annexin V apoptosis analysis. BM cells were stained with APC-Cy7-conjugated anti-mouse Sca1 (BD Biosciences, #560654, 1:100), PE-conjugated anti-ckit (BD Biosciences, #553355, 1:100), and V450 lineage cocktail (BD Biosciences, #561301, 1:10) antibodies for 30 min at 4 °C. Cells were then resuspended in 1× Annexin V binding buffer and then stained with FITC-conjugated anti-Annexin V antibody (BD Biosciences, #556547,1:50) and 7AAD antibody (BD Biosciences, #559925, 1:40)[68]. For in vitro human BM cell apoptosis assays, isolated human BM CD34^+ cells were plated into 96-well plates and then irradiated with 300 cGy. Immediately after irradiation, cells were treated with 5 μg/mL DJ001 or vehicle for 24 h and then collected for Annexin V cell apoptosis analysis. For cell cycle analysis, BM KSL cells were irradiated at 300 cGy and then treated with 1 μg/mL DJ001 or vehicle for 36 h. Subsequently, cells were resuspended in 200 μL of PBS, fixed with 1 mL of ice-cold fixation solution (0.25% Saponin, 2.5% PFA, 2% fetal calf serum (FCS) in PBS), and incubated for 30 min on ice. Cells were washed in Saponin buffer (0.25% Saponin, 2% FCS in PBS) and resuspended in 200 μL of Saponin buffer containing 20 μL of FITC-conjugated anti-Ki67 antibody (BD Biosciences, #556026, 1:10) and 1 μL of RNase (Qiagen, #19101, 100 mg/mL). After 30 min of incubation, cells were washed in Saponin buffer and resuspended for flow analysis in 200 μL of Saponin buffer containing 5 μL 7AAD (BD Biosciences, #559925, 1:40).

[2] = biological target: T1, Lambda PP (Lambda Protein Phosphatase) (Escherichia phage lambda, UniProt P03772); test: PhosphataseProfiler screen: Lambda PP; assay type: biochemical; settings: replicates
T1 construct: purchased Eurofins Pharma Discovery Services UK
T1 sequence (P03772 whole entry): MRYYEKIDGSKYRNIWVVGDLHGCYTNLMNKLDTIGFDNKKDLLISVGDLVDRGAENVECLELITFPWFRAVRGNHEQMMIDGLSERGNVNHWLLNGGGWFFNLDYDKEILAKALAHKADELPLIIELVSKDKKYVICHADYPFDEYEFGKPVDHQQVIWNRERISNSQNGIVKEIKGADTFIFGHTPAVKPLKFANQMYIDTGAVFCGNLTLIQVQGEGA
Procedure: (§2) Compound DJ001 was evaluated in a PhosphataseProfiler™ screen at 10 μM and 1 μM (2.7 μg/mL and 0.27 μg/mL) concentrations at Eurofins Pharma Discovery Services UK (Study number UK022-0004033) against a panel of 21 Phosphatases. In each experiment, the respective reference antagonist/agonist was tested directly with DJ001 and the data were compared with historical values determined at Eurofins. DJ001 compound inhibition was calculated as percentage inhibition of the enzymatic activity compared with control.

[3] = tested on: CDC42-GTP in BM lin− cells; test: G-LISA activation assay: CDC42-GTP; assay type: cell-based, mouse; settings: for CDC42-GTP level (G-LISA): Supplementary Figure 7b (right panel)
Procedure: (§3) The RAC1-GTP, RHOA-GTP, and CDC42-GTP activation levels in BM lin^− cells were measured using a colorimetric-based RAC1-, RHOA-, and CDC42 G-LISA Activation Assay Kit (Cytoskeleton, Inc.). BM cells from femurs and tibias were isolated from 12-week-old Ptprs^+/+ and Ptprs^−/− mice. Cells were then depleted of lineage-committed cells with Direct Lineage Cell Depletion Kit (Miltenyi Biotec, #130-110-470; 1:5). The BM lin^− cell fraction was then serum starved in Iscove’s modified Dulbecco’s medium (IMDM) and treated with either vehicle (equal amount of DMSO) or 1 μg/mL DJ001 for 10 min at 37 °C. After treatment, cells were washed with ice-cold PBS and then placed in lysis buffer supplemented with protease inhibitor. Lysate concentrations were measured by Pierce^TM BCA Protein Assay Kit (ThermoFisher Scientific). G-LISA was performed according to the manufacturer’s instructions. Briefly, 12.5 μg of lysates was added to a GTP-binding protein pre-coated plate and active RAC1-GTP, RHOA-GTP, or CDC42-GTP levels were measured at 490 nm using a PowerWave XS2 microplate reader (BioTek).

[4] = tested on: RHOA-GTP in BM lin− cells; test: G-LISA activation assay: RHOA-GTP; assay type: cell-based, mouse; settings: for RHOA-GTP level (G-LISA): Supplementary Figure 7b (left panel)
Procedure: as §3

[5] = tested on: panel of 21 Phosphatases; test: PhosphataseProfiler screen, whole panel; assay type: biochemical; settings: DJ001 at 10 μM and 1 μM
Procedure: as §2

[6] = tested on: BM KSL cells; test: Cell cycle analysis (Ki67/7AAD) of BM KSL cells; assay type: cell-based, mouse; design: G0 / G1 / G2SM: unit not given here
Procedure: as §1

[7] = tested on: human CD34+CD38− cells; test: Annexin V/7AAD apoptosis assay of irradiated human BM CD34+ cells; assay type: cell-based
Procedure: as §1

[8] = biological target: T2, LMPTP-B (Low Molecular Weight Protein Tyrosine phosphatase B) (Homo sapiens, UniProt P24666); test: PhosphataseProfiler screen: LMPTP-B; assay type: biochemical; settings: replicates
T2 construct: purchased Eurofins Pharma Discovery Services UK
T2 sequence (P24666 1-158 isoform P24666-2, species assumed): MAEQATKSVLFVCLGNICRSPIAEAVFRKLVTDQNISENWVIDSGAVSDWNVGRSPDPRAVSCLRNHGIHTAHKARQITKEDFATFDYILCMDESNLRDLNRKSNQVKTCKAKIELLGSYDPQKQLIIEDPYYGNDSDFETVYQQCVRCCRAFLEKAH
Procedure: as §2

[9] = biological target: T3, PTPN22 (Protein Tyrosine Phosphatase Non-Receptor Type 22) (Homo sapiens, UniProt Q9Y2R2); test: PhosphataseProfiler screen: PTPN22; assay type: biochemical; settings: replicates
T3 construct: purchased Eurofins Pharma Discovery Services UK
T3 sequence (Q9Y2R2 whole entry, species assumed): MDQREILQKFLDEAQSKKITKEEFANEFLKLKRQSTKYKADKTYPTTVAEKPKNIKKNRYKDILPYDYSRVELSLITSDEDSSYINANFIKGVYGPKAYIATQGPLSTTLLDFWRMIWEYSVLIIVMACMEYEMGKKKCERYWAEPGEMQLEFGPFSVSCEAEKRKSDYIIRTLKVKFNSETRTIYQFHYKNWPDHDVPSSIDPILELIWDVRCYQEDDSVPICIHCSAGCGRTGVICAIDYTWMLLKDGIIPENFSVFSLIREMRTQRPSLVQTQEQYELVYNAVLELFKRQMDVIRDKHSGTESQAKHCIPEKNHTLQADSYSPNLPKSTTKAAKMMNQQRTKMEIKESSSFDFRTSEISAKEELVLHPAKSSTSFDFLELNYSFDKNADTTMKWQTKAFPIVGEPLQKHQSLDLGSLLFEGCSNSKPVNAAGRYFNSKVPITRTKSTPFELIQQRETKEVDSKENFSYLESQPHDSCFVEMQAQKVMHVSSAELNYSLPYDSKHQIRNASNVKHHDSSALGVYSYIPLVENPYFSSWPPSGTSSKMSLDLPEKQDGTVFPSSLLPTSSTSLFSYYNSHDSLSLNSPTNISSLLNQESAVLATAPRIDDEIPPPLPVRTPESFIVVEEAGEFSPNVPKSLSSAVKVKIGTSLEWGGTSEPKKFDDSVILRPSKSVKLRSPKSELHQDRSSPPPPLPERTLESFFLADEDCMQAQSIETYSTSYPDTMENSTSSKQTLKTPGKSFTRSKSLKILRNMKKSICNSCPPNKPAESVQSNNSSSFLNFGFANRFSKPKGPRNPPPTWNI
Procedure: as §2

[10] = biological target: T4, CD45 (Protein Tyrosine Phosphatase, receptor type C) (Homo sapiens, UniProt P08575); test: PhosphataseProfiler screen: CD45; assay type: biochemical; settings: replicates
T4 construct: purchased Eurofins Pharma Discovery Services UK
T4 sequence (P08575 26-1306, species assumed): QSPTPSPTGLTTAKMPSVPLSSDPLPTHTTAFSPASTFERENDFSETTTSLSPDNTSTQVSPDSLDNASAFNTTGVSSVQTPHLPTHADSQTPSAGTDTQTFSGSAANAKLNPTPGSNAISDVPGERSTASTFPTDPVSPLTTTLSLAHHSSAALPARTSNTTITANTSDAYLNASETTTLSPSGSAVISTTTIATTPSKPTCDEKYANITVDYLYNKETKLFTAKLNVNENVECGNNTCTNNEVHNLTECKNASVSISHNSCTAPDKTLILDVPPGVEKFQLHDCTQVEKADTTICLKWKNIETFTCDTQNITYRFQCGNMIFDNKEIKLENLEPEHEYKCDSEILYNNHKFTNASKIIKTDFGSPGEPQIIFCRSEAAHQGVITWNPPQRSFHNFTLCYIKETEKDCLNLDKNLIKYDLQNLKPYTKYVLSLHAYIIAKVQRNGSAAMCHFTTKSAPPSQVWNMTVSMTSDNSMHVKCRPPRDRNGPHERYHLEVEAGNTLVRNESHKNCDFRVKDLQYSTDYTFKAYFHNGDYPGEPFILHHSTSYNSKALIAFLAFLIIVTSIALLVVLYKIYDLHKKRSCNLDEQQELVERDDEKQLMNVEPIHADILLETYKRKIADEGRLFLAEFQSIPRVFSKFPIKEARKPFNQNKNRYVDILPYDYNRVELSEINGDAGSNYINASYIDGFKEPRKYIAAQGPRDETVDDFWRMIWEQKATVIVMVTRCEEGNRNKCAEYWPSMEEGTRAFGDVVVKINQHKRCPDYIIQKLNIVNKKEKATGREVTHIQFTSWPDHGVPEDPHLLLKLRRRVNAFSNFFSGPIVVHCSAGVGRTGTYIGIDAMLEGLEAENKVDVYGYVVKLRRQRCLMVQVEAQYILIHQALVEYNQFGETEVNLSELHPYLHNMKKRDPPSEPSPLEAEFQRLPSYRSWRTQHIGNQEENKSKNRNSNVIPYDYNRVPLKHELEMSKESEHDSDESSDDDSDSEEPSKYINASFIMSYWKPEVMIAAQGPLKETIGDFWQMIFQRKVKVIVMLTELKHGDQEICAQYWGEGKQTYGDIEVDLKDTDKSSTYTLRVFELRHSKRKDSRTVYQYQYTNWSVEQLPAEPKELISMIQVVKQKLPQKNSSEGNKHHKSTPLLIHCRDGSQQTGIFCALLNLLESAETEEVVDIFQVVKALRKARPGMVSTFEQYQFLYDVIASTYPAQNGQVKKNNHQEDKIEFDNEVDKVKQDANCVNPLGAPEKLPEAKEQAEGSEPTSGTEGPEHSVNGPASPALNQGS
Procedure: as §2

[11] = BM lin− cells, 1 μg/mL DJ001, 10 min
[12] = 36 h following 300 cGy, 1 μg/mL DJ001
[13] = 36 h following 300 cGy, 1 µg/mL DJ001, 6 µg/mL EHT1864, 240 ng/mL SU9516
[14] = cell cycle phase, Supplementary Figure 7h
[15] = irradiated human BM CD34+ cells, replicates

O=C(/C=C\Nc1cccc([N+](=O)[O-])c1)c1ccccc1 [DJ001, (Z)-3-((3-nitrophenyl)amino)-1-phenylprop-2-en-1-one]
percentage of apoptotic BM KSL cells vs vehicle ([1]; 24 h following 500 cGy TBI): significantly decreased the percentage of apoptotic BM KSL cells
Figure 3e: Annexin V/7AAD apoptosis of BM KSL cells ([1]; 24 h post 500 cGy TBI, individual mice): 14.6 and 11.3 and 12.5 and 12.9 and 14.7 and 10.4 and 14.5 and 15.5 and 16.7
Supplementary Figure 1: Lambda PP activity ([2]; 0.27 μg/mL DJ001): 126 and 132 and 133
Supplementary Figure 1: Lambda PP activity ([2]; 2.7 μg/mL DJ001): 118 and 122 and 125
activation of CDC42 [3, 11]: did not alter the activation
CDC42-GTP level (G-LISA) ([3]; Ptprs+/+ cells): 0.2383 and 0.2517 and 0.2371
CDC42-GTP level (G-LISA) ([3]; Ptprs-/- cells): 0.1634 and 0.1869 and 0.1735
activation of RhoA [4, 11]: did not alter the activation
RHOA-GTP level (G-LISA) ([4]; Ptprs+/+ cells): 0.1099 and 0.0821 and 0.1369
RHOA-GTP level (G-LISA) ([4]; Ptprs-/- cells): 0.1117 and 0.0668 and 0.0845
inhibitory activity against 20 other phosphatases [5]: no inhibitory activity
percentage of KSL cells in G2/S/M phase vs control ([6]; 36 h following 300 cGy): significantly increased the percentage of KSL cells in G2/S/M phase
percentages of KSL cells in G0, per replicate (Figure 4a) [6, 12]: 10.898% and 7.091% and 6.413% and 9.19% and 8.538% and 7.981% and 5.757%
percentages of KSL cells in G1, per replicate (Figure 4a) [6, 12]: 51.766% and 62.582% and 57.686% and 51.047% and 60.936% and 51.069% and 57.668%
percentages of KSL cells in G2SM, per replicate (Figure 4a) [6, 12]: 36.781% and 29.964% and 35.471% and 38.731% and 30% and 39.75% and 36.236%
percentages of BM cells in G0, per replicate (Figure 4d bottom left panel) [6, 13]: 12% and 10% and 8% and 4% and 11%
percentages of BM cells in G1, per replicate (Figure 4d bottom center panel) [6, 13]: 52% and 54% and 51% and 48%
percentages of BM cells in G2/S/M, per replicate (Figure 4d bottom right panel) [6, 13]: 35% and 40% and 41% and 39%
G0 [6, 14]: 17.593 and 13.329 and 15.794 and 18.75 and 23.139 and 16.263 and 18.5
G1 [6, 14]: 51.409 and 55.557 and 49.648 and 46.611 and 42.434 and 51.122 and 52.817
G2SM [6, 14]: 27.738 and 29.087 and 32.369 and 30.422 and 28.183 and 29.707 and 25.745
radiation-induced apoptosis of human CD34+CD38− cells ([7]; 24 h after 300 cGy): decreased radiation-induced apoptosis
Figure 5c (left panel): Annexin V/7AAD assay [7, 15]: 85.79 and 85.23 and 84.4 and 88.36 and 87.91 and 86.9 and 86.4 and 88.8 and 87.8 and 88
Figure 5c (right panel): Annexin V/7AAD assay [7, 15]: 10.98 and 10.1 and 10.94 and 7.63 and 8.04 and 12.5 and 13.3 and 11 and 12.1 and 11.7
Supplementary Figure 1: LMPTP-B activity ([8]; 0.27 g/mL DJ001): 96 and 90 and 99
Supplementary Figure 1: LMPTP-B activity ([8]; 2.7 g/mL DJ001): 99 and 100 and 91
Supplementary Figure 1: PTPN22 activity ([9]; 2.7 μg/mL DJ001): 94 (2×) and 89
Supplementary Figure 1: PTPN22 activity ([9]; 0.27 g/mL DJ001): 103 and 99 and 94
Supplementary Figure 1: CD45 activity ([10]; 0.27 μg/mL DJ001): 91 and 86 and 84
Supplementary Figure 1: CD45 activity ([10]; 2.7 μg/mL DJ001): 71 and 85 and 86
